Activity data for three compounds are collected here from ChEMBL document CHEMBL3124838, “Discovery of 6-aryl-azabenzimidazoles that inhibit the TBK1/IKK-ε kinases” (Bioorg Med Chem Lett, 2014).

In assay [1] the target is T1, Inhibitor of nuclear factor kappa-B kinase subunit beta (Homo sapiens) (UniProt O14920).
T1 sequence (whole entry): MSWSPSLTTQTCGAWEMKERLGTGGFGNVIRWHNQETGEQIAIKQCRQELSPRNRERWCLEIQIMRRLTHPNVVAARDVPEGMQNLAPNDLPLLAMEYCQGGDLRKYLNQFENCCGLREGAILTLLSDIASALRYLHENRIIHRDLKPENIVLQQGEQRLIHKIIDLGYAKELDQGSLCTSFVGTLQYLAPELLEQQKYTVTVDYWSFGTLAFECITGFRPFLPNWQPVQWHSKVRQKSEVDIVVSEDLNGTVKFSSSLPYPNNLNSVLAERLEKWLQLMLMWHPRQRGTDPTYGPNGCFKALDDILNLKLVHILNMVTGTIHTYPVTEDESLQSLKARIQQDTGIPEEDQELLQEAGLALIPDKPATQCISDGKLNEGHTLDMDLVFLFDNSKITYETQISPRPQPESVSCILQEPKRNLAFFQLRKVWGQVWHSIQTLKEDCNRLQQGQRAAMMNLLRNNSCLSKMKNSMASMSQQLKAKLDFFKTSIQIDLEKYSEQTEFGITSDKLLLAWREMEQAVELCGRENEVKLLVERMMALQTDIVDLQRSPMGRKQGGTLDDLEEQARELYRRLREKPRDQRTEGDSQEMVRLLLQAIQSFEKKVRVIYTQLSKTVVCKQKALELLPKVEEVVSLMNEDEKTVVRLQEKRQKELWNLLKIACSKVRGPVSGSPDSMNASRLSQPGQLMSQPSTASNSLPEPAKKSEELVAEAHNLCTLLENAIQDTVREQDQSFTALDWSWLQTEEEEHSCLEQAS
In words: Inhibition of human IKKbeta assessed as residual activity at 1 uM relative to control.

Assay [2] concerns the target T2, Ephrin type-B receptor 4 (Homo sapiens) (UniProt P54760).
T2 sequence (whole entry): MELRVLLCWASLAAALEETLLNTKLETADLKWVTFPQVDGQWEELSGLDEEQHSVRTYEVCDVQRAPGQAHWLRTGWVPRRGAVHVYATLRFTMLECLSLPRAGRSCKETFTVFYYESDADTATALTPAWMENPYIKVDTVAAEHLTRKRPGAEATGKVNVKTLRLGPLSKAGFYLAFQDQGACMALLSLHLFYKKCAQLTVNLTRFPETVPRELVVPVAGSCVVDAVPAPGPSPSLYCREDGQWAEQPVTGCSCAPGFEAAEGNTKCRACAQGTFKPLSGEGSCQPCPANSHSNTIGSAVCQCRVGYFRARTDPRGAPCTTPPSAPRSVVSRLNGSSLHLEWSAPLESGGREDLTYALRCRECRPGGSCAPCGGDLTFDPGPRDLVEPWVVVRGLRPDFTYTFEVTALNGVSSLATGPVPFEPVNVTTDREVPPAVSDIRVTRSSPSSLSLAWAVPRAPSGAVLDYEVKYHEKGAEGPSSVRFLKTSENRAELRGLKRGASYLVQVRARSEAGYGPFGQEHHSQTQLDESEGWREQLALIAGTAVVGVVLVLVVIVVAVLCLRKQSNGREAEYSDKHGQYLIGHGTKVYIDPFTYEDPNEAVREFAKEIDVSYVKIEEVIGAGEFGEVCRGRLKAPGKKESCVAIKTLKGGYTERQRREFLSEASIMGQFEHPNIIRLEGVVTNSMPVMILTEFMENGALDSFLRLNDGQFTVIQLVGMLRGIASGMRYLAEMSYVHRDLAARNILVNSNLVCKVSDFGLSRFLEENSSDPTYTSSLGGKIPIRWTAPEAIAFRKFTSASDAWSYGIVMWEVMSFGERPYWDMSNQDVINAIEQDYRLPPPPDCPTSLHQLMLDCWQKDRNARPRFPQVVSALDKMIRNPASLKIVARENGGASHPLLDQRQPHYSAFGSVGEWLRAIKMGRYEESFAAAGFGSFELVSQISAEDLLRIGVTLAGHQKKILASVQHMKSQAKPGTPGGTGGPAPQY
The assay can be described thus: Inhibition of human EPHB4 assessed as residual activity at 1 uM relative to control.

For assay [3], the target named is Insulin-like growth factor 1 receptor (Homo sapiens) (UniProt P08069). In words: Inhibition of human activated IGF-1R assessed as residual activity at 1 uM relative to control.
Sequence of Insulin-like growth factor 1 receptor (Homo sapiens) (P08069 31-736 limits assumed): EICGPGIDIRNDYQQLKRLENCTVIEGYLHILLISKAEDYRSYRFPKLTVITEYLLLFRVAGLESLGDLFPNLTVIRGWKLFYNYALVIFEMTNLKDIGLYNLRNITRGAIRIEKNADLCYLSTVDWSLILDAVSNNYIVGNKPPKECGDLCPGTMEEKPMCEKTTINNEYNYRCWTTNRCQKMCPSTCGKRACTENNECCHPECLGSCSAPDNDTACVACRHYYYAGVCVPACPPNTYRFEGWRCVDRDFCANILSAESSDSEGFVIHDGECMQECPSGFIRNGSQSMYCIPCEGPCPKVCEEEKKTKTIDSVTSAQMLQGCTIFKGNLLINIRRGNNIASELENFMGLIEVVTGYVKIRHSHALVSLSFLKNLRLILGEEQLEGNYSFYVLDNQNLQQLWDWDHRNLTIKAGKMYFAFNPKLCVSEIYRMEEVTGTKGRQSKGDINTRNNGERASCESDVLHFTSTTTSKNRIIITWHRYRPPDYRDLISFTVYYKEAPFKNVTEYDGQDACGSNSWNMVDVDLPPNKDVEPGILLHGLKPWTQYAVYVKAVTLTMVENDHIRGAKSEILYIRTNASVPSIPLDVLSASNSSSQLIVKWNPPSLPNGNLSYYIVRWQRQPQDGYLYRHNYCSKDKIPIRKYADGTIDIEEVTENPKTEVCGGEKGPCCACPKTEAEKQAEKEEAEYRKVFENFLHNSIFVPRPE
Sequence of Insulin-like growth factor 1 receptor (Homo sapiens) (P08069 741-1367 limits assumed): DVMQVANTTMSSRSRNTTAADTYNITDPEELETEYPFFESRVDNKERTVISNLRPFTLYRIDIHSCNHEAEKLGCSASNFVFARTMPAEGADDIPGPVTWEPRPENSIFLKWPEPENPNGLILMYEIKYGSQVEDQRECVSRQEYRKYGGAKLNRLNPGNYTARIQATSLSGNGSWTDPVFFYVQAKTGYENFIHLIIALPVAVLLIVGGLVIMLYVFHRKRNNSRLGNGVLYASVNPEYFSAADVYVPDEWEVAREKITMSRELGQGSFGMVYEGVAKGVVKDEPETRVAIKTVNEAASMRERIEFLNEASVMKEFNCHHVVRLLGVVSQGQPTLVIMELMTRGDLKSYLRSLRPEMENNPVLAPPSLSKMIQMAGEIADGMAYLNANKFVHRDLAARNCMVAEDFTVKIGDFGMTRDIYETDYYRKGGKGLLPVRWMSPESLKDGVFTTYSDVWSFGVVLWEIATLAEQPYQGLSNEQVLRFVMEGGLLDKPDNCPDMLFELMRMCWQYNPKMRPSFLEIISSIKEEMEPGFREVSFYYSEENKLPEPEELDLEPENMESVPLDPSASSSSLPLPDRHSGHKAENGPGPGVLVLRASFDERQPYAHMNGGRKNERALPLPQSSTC
In assay [4] the target is T3, MAP kinase-activated protein kinase 5 (Homo sapiens) (UniProt Q8IW41).
T3 sequence (whole entry): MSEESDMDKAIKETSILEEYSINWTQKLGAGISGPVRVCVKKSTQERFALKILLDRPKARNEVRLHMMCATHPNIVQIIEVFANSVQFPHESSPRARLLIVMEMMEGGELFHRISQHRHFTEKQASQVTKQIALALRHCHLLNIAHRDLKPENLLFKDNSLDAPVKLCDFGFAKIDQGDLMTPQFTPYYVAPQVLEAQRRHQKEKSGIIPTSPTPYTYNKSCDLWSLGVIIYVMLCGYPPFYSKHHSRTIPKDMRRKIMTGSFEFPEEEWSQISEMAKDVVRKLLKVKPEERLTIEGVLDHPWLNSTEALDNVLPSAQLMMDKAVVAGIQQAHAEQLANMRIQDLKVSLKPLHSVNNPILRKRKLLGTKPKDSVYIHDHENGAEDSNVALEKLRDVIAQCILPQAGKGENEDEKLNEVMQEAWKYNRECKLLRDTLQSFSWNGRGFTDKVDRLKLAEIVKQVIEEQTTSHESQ
The assay can be described thus: Inhibition of human PRAK assessed as residual activity at 1 uM relative to control.

Turning to `COc1ccc(-c2nc3cc(-c4csc(C(=O)NCC(C)(C)C)c4)cnc3[nH]2)cc1`, the Activity in assay [1] came out at 99%; in assay [2], 79%; in assay [3] it was 80%; in assay [4], 115%.

`COc1ccc(-c2nc3cc(-c4csc(C(=O)NCCC(C)C)c4)cnc3[nH]2)cc1`: the Activity in assay [1] came out at 95%; in assay [2], 95%; in assay [3], 91%; in assay [4], 102%.

Regarding `COc1ccc(-c2nc3cc(-c4csc(C(=O)NCC(C)C)c4)cnc3[nH]2)cc1`, the Activity was 95% in assay [1], 74% in assay [2], 95% in assay [3] and 112% in assay [4].
